In article PMC7253177, “Gain of channel function and modified gating properties in TRPM3 mutants causing intellectual disability and epilepsy” (eLife, 2020):
Where a chain is given by its changes, count along the chain named.

How the values were obtained:
TRPM3 V990M mutant = molecular target: T1, TRPM3 V990M mutant (Homo sapiens, UniProt Q9HCF6, V1015M); assay: Whole-cell patch clamp, HEK293T cells expressing V990M hTRPM3; assay type: cell-based; details: La3+ 10 µM, PS 40 µM, ±150 mV
T1 construct: expressed in transfected cells; host or cells: HEK293T
T1 sequence (Q9HCF6 1-1325 isoform Q9HCF6-10 V990M): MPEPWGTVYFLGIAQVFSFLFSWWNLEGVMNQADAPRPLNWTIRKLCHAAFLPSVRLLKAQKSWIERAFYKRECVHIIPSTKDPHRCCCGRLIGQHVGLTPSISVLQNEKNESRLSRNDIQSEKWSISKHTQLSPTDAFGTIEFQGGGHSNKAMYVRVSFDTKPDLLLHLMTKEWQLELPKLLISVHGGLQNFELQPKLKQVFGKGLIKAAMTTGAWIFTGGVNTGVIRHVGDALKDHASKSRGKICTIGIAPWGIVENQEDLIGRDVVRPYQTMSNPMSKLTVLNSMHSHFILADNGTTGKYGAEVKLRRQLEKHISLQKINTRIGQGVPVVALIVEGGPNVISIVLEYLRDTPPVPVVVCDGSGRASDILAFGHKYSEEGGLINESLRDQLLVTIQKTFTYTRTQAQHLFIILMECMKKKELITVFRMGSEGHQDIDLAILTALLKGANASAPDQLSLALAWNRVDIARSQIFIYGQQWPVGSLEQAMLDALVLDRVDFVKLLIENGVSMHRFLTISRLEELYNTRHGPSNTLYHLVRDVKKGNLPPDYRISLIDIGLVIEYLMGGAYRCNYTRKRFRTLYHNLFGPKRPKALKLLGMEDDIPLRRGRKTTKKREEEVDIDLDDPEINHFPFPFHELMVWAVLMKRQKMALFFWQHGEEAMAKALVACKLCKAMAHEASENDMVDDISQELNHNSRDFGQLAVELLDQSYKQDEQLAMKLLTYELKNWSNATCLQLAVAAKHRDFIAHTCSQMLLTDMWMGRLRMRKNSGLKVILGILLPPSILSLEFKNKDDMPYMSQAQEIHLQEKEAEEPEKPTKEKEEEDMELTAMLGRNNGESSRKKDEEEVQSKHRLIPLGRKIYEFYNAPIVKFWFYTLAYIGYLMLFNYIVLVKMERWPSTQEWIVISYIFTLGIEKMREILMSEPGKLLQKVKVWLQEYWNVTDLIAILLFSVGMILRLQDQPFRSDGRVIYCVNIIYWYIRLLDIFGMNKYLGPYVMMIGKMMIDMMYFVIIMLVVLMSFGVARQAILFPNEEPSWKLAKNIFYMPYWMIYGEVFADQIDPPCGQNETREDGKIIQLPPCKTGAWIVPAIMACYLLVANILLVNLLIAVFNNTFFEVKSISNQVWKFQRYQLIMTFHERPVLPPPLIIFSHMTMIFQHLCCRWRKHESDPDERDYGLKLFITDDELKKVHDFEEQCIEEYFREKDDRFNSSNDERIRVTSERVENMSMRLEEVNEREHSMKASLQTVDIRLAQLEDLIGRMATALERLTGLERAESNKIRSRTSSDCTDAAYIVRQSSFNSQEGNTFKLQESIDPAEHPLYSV
Experimental: (§1) HEK293T cells ([Graham et al., 1977]) were cultured as described previously ([Vriens et al., 2007]) and used up in passage number 14. HEK293T cells were tested for the lack of mycoplasma and transiently transfected with 2 µg of DNA using TransIT transfection reagent (Mirus) 36–48 hr before the measurements. In case of co-cultures a ratio of 1:1 between hTRPM3-YFP WT and mutants-YFP DNA was used.
All mutants were obtained by the standard PCR overlap extension method using hTRPM3 directly linked to YFP from pCAGGS/IRES-GFP vector ([Vriens et al., 2007]). Accuracy of all mutant sequences was verified by sequencing of the entire DNA constructs.
(§2) Standard whole-cell patch-clamp recordings were performed with an EPC-10 amplifier and the PatchMasterPro Software (HEKA Elektronik, Lambrecht, Germany). Current measurements were performed at a sampling rate of 20 kHz and currents were digitally filtered at 2.9 kHz. In all measurements, 70% of the series resistance was compensated. The standard internal solution contained (in mM): 100 CsAsp, 45 CsCl, 10 EGTA, 10 HEPES, 1 MgCl2 (pH 7.2 with CsOH) or 140 potassium gluconate, 5 EGTA, 1 MgCl2, 10 HEPES and 2 NaATP (pH 7.3 with CsOH) for the measurements of Gβγ mediated inhibition and the standard extracellular solution contained (in mM): 150 NaCl, 1 MgCl2, 10 HEPES (pH 7.4 with NaOH). The standard patch pipette resistance was between 2 MΩ and 4 MΩ when filled with pipette solution. In experiments allowing Ca^2+-dependent desensitization of TRPM3, Mg^2+ was replaced by Ca^2+ in the extracellular solution, and Cs^+ was replaced by Na^+ in the pipette solution. […] The chemical ligands were dissolved in bath solution from a stock diluted in DMSO.

[1] = test system: P1090Q hTRPM3 co-transfected with µ-opioid receptors; assay: Whole-cell patch clamp, Gβγ-mediated inhibition of PS-activated currents, cells co-transfected with µ-opioid receptor and P1090Q TRPM3; assay type: cell-based, human; details: 1 µM DAMGO, PS 40 µM
Experimental: (§3) TRPM3 activity is inhibited upon activation of G protein-coupled receptors, via a mechanism that involves direct binding of the Gβγ of trimeric G-proteins to the channel ([Badheka et al., 2017]; [Dembla et al., 2017]; [Quallo et al., 2017]).
as §1
(§4) Standard whole-cell patch-clamp recordings were performed with an EPC-10 amplifier and the PatchMasterPro Software (HEKA Elektronik, Lambrecht, Germany). Current measurements were performed at a sampling rate of 20 kHz and currents were digitally filtered at 2.9 kHz. In all measurements, 70% of the series resistance was compensated. The standard internal solution contained (in mM): 100 CsAsp, 45 CsCl, 10 EGTA, 10 HEPES, 1 MgCl2 (pH 7.2 with CsOH) or 140 potassium gluconate, 5 EGTA, 1 MgCl2, 10 HEPES and 2 NaATP (pH 7.3 with CsOH) for the measurements of Gβγ mediated inhibition and the standard extracellular solution contained (in mM): 150 NaCl, 1 MgCl2, 10 HEPES (pH 7.4 with NaOH). […]

[2] = test system: WT hTRPM3 co-transfected with µ-opioid receptors; assay: Whole-cell patch clamp, Gβγ-mediated inhibition of PS-activated currents, cells co-transfected with µ-opioid receptor and WT TRPM3; assay type: cell-based, human
Experimental: as §3, §1, §4

WT human TRPM3 = molecular target: T2, WT human TRPM3 (Homo sapiens, UniProt Q9HCF6); assay: Whole-cell patch clamp, HEK293T cells expressing WT hTRPM3; assay type: cell-based; details: cells not co-transfected with the µ-opioid receptor; DAMGO 1 µM, PS 40 µM
T2 construct: expressed in transfected cells; host or cells: HEK293T
T2 sequence (Q9HCF6 1-1325 isoform Q9HCF6-10): T1 sequence (Q9HCF6 1-1325 isoform Q9HCF6-10 V990M) with M990V
Experimental: as §1, §2

[3] = test system: V990M hTRPM3 co-transfected with µ-opioid receptors; assay: Whole-cell patch clamp, Gβγ-mediated inhibition of PS-activated currents, cells co-transfected with µ-opioid receptor and V990M TRPM3; assay type: cell-based, human
Experimental: as §3, §1, §4

[4] = n = 5, read-out: IC50, DAMGO concentration for half-maximal inhibition of PS-activated currents

| Molecule | Block of the inward component of the PS-activated current (TRPM3 V990M mutant) | Inhibition of PS-activated inward and outward currents [1] | Inhibition of PS-activated inward and outward currents ([2]; 1 µM DAMGO, PS 40 µM) | IC50 [2, 4] | Effect on TRPM3 currents (WT human TRPM3) | Inhibition of PS-activated inward and outward currents ([3]; 1 µM DAMGO, PS 40 µM) | IC50 [3, 4] |
| --- | --- | --- | --- | --- | --- | --- | --- |
| [La+3] [La^3+, Lanthanum] | resistant to block | – | – | – | – | – | – |
| [D-Ala^2, N-Me-Phe^4, Gly^5-ol]-enkephalin acetate salt [DAMGO] | – | complete and rapidly reversible inhibition | complete and rapidly reversible inhibition | 4 ± 0.6 nM | without effect | only partly inhibited | 40 ± 10 nM |
